Data: patent publication US6558900B2, “Regulation of apoptosis and in vitro model for studies thereof” (Emory University, priority 1996, dated 2003)
Entries after “also recorded” stand apart in the source; their conditions may differ. Counter-ions that a name gives are not always drawn.

Experiments:
variety of cell types = details: cited from earlier work
CPP32 [1] = experiment: Reconstitution of dATP-dependent CPP32 activation in HeLa S-100 immunodepleted of cytochrome c; assay type: biochemical, human; details: 0.2 μg added to immunodepleted HeLa S-100, 1 mM dATP
Description: (§1) Cytochrome c present in the HeLa cell S-100 was immunodepleted as described in the Example 10. In FIG. 7A, 10 μl aliquots of HeLa S-100 (50 μg) (lanes 1 and 2), or 10 μl aliquots of HeLa S-100 immunodepleted of cytochrome c (lanes 3 and 4), or 10 μl of HeLa S-100 immunodepleted of cytochrome c supplemented with 0.2 μg Apaf-2 purified through the Mono S column (H) (lanes 5 and 6), bovine heart cytochrome c (B) (lanes 7 and 8), or rat liver cytochrome c (R) (lanes 9 and 10), were incubated with aliquots of 3 μl in vitro translated, ^35S-labeled CPP32 in the absence (lanes 1, 3, 5, 7, 9) or presence (lanes 2, 4, 6, 8, 10) of 1 mM dATP at 30° C. for 1 hr in a final reaction volume of 20 μl of buffer A. Samples were subjected to SDS-PAGE and transferred to a nitrocellulose filter which were then exposed to film for 16 hr at room temperature. In FIG. 7B, HeLa S-100 (50 μg) immunodepleted of cytochrome c were reconstituted with the indicated amount of Apaf-2 (purified through Mono S column step) in a CPP32 cleavage reaction as described in FIG. 7A. The cleaved products (p20) were quantified in a Fuji-1000 phosphorimager machine and plotted in comparison with that generated by HeLa S-100. In FIG. 7C, aliquots of 50 μl of HeLa S-100 (250 μg) (lanes 1 and 2), or 50 μl of HeLa S-100 immunodepleted of cytochrome c (lanes 3 and 4), or 50 μl of HeLa S-100 immunodepleted of cytochrome c supplemented with 1 μg apaf-2 purified through the Mono S column (H) (lanes 5 and 6), bovine heart cytochrome c (B) (lanes 7 and 8), or rat liver cytochrome c (R) (lanes 9 and 10), were incubated with aliquots of 6 μl hamster liver nuclei in the absence (lanes 1, 3, 5, 7, 9) or presence (lanes 2, 4, 6, 8, 10) of 1 mM dATP at 37° C. for 2 hr in a final reaction volume of 60 μl. The DNA were isolated as described in the Examples, analyzed on 2% agarose gel electrophoresis, and the DNA was visualized by ethidium bromide staining. In FIG. 7D, DNA fragmentation assays were carried out as in FIG. 7C using HeLa S-100 immunodepleted of cytochrome c alone (a,b) or supplemented with Apaf-2 purified through Mono S column step (c,d) in the absence (a,c) or presence of 1 mM dATP (b,d). After 2 hr incubation at 37° C., an aliquot of each reaction (30 μl) was stained with 4′,6′-diamidino-2-phenylindole (DAPI), and observed under a fluorescence microscope with a UV-2A combination filter.
To rule out the possibility that the Apaf-2 activity is due to a minor contaminating protein that co-purified with cytochrome c, an immunodepletion experiment was carried out using a monoclonal antibody against rat cytochrome c. This monoclonal antibody cross-reacts with purified Apaf-2. As shown in FIGS. 7A-7D, HeLa cell S-100 depleted of cytochrome c using the monoclonal anti-cytochrome c antibody lost the dATP-dependent activation of CPP32 and the ability to induce DNA fragmentation in the added nuclei (FIGS. 7A and 7C, lanes 3 and 4). Adding back either the purified Apaf-2 from HeLa cells or the commercial cytochrome c from bovine heart or rat liver to the immunodepleted extracts restored the dATP-dependent activation of CPP32 and DNA fragmentation (FIGS. 7A and 7C, lanes 5-10). The reconstitution of cytochrome c dependent-activation of CPP32 was evident with the addition of 0.01 μg (33 nM) of purified cytochrome c to the cytochrome c-depleted extracts (FIG. 7B).
CPP32 was translated and purified as described above. Aliquot of 3 μl of the in vitro translated CPP32 was incubated with the indicated protein fraction, nucleotides, and 1 mM additional MgCl2 at 30° C. for 1 hour in a final volume of 20 μl of buffer A. At the end of the incubation, 7 μl of 4×SDS sample buffer was added to each reaction. After boiling for 3 min, each sample was subjected to a 15% SDS-polyacrylamide gel electrophoresis (SDS-PAGE). The gel was transferred to a nitrocellulose filter which was subsequently exposed to a Kodak X-OMAT AR X-ray film (Eastman Kodak, Rochester, N.Y.) for 16 hr at room temperature. […]

CPP32 [2] = experiment: Apaf-2 activity: recombining with phosphocellulose flow through fraction (Apaf-1) and 35S-labeled CPP32; assay type: biochemical, human; details: 0.2 μg protein with phosphocellulose flowthrough fraction, 1 mM dATP
Description: FIG. 3 illustrates fractionation and reconstitution of dATP-dependent activation of CPP32 by phosphocellulose chromatography. HeLa cell S-100 was subjected to phosphocellulose chromatography and the column flow through and bound material were collected as described in the Examples. Aliquots (10 μl) of HeLa S-100 (50 μg) (lanes 1 and 2), phosphocellulose flow through fraction (PC-FT) (lanes 3 and 4), phosphocellulose bound fraction (PC-B) (lanes 5 and 6), and the mixture of phosphocellulose flow through and bound material (lanes 7 and 8) were incubated with aliquots of 3 μl in vitro translated, ^35S-labeled CPP32 at 30° C. for 1 hr in the absence (lanes 1,3,5,7) or presence (lanes 2,4,6,8) of 1 mM dATP. The samples were subjected to SDS-PAGE, transferred to a nitrocellulose filter, and the filter was exposed to film for 16 hours at room temperature.
The Apaf-2 activity that bound to the phosphocellulose column was purified through the Mono S column as described in Example 7. […] In FIG. 4B, aliquots (30 μl) of the Mono-S fractions were subjected to 15% SDS-PAGE and the proteins were visualized by silver staining.
Aliquots of 0.2 μg of Apaf-2 purified through the Mono S column (lanes 1, 2), cytochrome c from bovine heart (lanes 3, 4), and rat liver (lanes 5, 6) were incubated with aliquots of 10 μl phosphocellulose flowthrough fraction and 3 μl in vitro translated, 35S-labeled CPP32 at 30° C. for 1 hr in a final volume of 20 μl buffer A in the absence (lanes 1,3,5) or presence of (lanes 2, 4, 6) 1 mM dATP. Samples were subjected to SDS-PAGE and transferred to a nitrocellulose filter which was then exposed to a film for 16 hr at room temperature.
To isolate the protein(s) required for the activation of CPP32, HeLa S-100 was loaded onto a phosphocellulose column, and the flow-through and bound fractions were collected. […] When the flowthrough and bound fractions were mixed, CPP32-activating activity was restored (lanes 7-8). […] The factor(s) that flow through the phosphocellulose column are designated apoptotic protease activating factor-1 (Apaf-1) and the factor that bound to the column is designated apoptotic protease activating factor-2 (Apaf-2). It is understood that “Apaf-1” may represent more than one protein or it may represent a combination of protein(s) and other factors.
Apaf-2 activity was assayed by recombining with Apaf-1 after purification by the following steps. First, the Apaf-2 fraction was subjected to 50% ammonium sulfate precipitation. All of the activity remained in the supernatant while most of the protein precipitated (Table I). The supernatant was loaded onto a phenyl-sepharose (hydrophobic interaction) column and the activity was eluted with 1 M ammonium sulfate. The eluate was passed through a gel filtration column; active fractions were subjected to sequential Mono Q (anion exchange) and Mono S (cation exchange) chromatography. The Apaf-2 activity flowed through the Mono Q column, and the flow through was directly loaded onto the Mono S column. Bound Apaf-2 activity was then eluted with a 100-300 mM NaCl linear salt gradient. The fractions from the Mono S column were collected and assayed. […] The active fractions were analyzed by SDS-PAGE (FIG. 4B). A protein of apparent molecular mass of 15 kDa was co-eluted with the activity. No other proteins were detected by silver staining in the active Apaf-2 fractions.
CPP32 was translated and purified as described above. […]

hamster liver nuclei = experiment: Reconstitution of DNA fragmentation and nuclear morphological change in HeLa S-100 immunodepleted of cytochrome c; assay type: biochemical; details: 1 μg added to immunodepleted HeLa S-100, 1 mM dATP
Description: as §1
To rule out the possibility that the Apaf-2 activity is due to a minor contaminating protein that co-purified with cytochrome c, an immunodepletion experiment was carried out using a monoclonal antibody against rat cytochrome c. This monoclonal antibody cross-reacts with purified Apaf-2. […]

Compound: COc1cc([C@@H]2c3cc4c(cc3[C@@H](O[C@@H]3O[C@@H]5CO[C@@H](C)O[C@H]5[C@H](O)[C@H]3O)[C@H]3COC(=O)[C@H]23)OCO4)cc(OC)c1O [etoposide]
- initiation of apoptosis (variety of cell types): act to initiate apoptosis

Compound: O=C1c2c(O)ccc(O)c2C(=O)c2c(NCCNCCO)ccc(NCCNCCO)c21 [mitoxantrone HCl]
- initiation of apoptosis (variety of cell types): act to initiate apoptosis

Compound: bovine heart cytochrome c: commercial cytochrome c from bovine heart (Sigma)
- restoration of dATP-dependent activation of CPP32 (CPP32 [1]): restored
- Apaf-2 activity (dATP-dependent activation of CPP32) (CPP32 [2]): have Apaf-2 activity; also recorded: initiated dATP-dependent activation of CPP32 as efficiently as Apaf-2
- restoration of DNA fragmentation (hamster liver nuclei): restored

Compound: rat liver cytochrome c: commercial cytochrome c from rat liver (Sigma)
- restoration of dATP-dependent activation of CPP32 (CPP32 [1]): restored
- Apaf-2 activity (dATP-dependent activation of CPP32) (CPP32 [2]): have Apaf-2 activity; also recorded: initiated dATP-dependent activation of CPP32 as efficiently as Apaf-2
- restoration of DNA fragmentation (hamster liver nuclei): restored
